Measurements from US20240075002A1, “CREATINE COMPOSITION AND METHODS OF USING SAME” (NanoChem Solutions, Inc, priority 2022, published 2024).

Assay: pH of the spray dried powder
Format: physicochemical
Experimental: In one exemplary embodiment, an aqueous solution of creatine sodium sulfate can be produced by dissolving about 72.96 grams of sodium hydrogen sulfate in about 811.86 grams of deionized water. The solution can be heated to about 145° F. and is maintained throughout the reaction. When the temperature of the sodium hydrogen sulfate solution reaches about 145° F., about 90.63 grams of creatine monohydrate can be added to the solution whereby the heat is maintained at about 145° F. and the mixture mixes with standard agitation for approximately 1 hour. After the hour, the solution is immediately piped to the spray dryer whereby it is spray dried into a powder with a total water of 3-7% by weight and with a water activity of less than 0.4. The pH of the spray dried powder is approximately 1.7. The mesh size of the spray-dried, stable, soluble sodium hydrogen sulfate powder is approximately 40-200 mesh, but can be adjusted depending on the requirements of the customer or desired end application.
In another exemplary embodiment, an aqueous solution of creatine potassium sulfate can be produced by dissolving about 109.53 grams of potassium hydrogen sulfate in about 806.68 grams of deionized water. The solution is can be heated to about 145° F. and is maintained throughout the reaction. […]

Row | Structure (SMILES) | pH of the spray dried powder
1 | CN(CC(=O)O)C(=N)N.O=S(=O)([O-])[O-].[Na+].[Na+] [creatine sodium sulfate] | approximately 1.7
2 | CN(CC(=O)O)C(=N)N.O=S(=O)([O-])[O-].[K+].[K+] [creatine potassium sulfate] | approximately 1.7
